According to US7202260B2, “VEGFR-2 and VEGFR-3 inhibitory anthranilamide pyridones” (Schering AG, priority 2003, dated 2007):
Read-outs that look alike come from different tables or passages of the source.

Tests used:
VEGFR II (KDR) = VEGFR II (KDR) (Homo sapiens, UniProt P35968); test: Inhibition of the KDR kinase activity (33P-ATP, poly-(Glu4Tyr) filter assay); format: biochemical
Procedure: • Stock Solutions • Stock solution A: 3 mmol of ATP in water, pH 7.0 (−70° C.) • Stock solution B: g-33P-ATP 1 mCi/100 μl • Stock solution C: poly-(Glu4Tyr) 10 mg/ml in water • Solution for Dilutions • Substrate solvent: 10 mmol of DTT, 10 mmol of manganese chloride, 100 mmol of magnesium chloride • Enzyme solution: 120 mmol of tris/HCl, pH 7.5, 10 μM of sodium vanadium oxide Sample Application 1 Inhibition of the KDR- and FLT-1 Kinase Activity in the Presence of the Compounds According to the Invention
In a microtiter plate (without protein binding) that tapers to a point, 10 μl of substrate mix (10 μl of volume of ATP stock solution A+25 μCi of g-33P-ATP (about 2.5 μl of stock solution B)+30 μl of poly-(Glu4Tyr) stock solution C+1.21 ml of substrate solvent), 10 μl of inhibitor solution (substances corresponding to the dilutions, 3% DMSO in substrate solvent as a control) and 10 μl of enzyme solution (11.25 μg of enzyme stock solution (KDR, FLT-1 or FLT-4 kinase) are added at 4° C. in 1.25 ml of enzyme solution (dilute). It is thoroughly mixed and incubated for 10 minutes at room temperature. Then, 10 μl of stop solution (250 mmol of EDTA, pH 7.0) is added, mixed, and 10 μl of the solution is transferred to a P 81 phosphocellulose filter. […] The filter paper is dried, coated with Meltilex, and measured in a microbeta counter. […]

[1] = biological target: T1, Cytochrome P450 isoenzyme 3A4 (Homo sapiens, UniProt P08684); test: Cytochrome P450 inhibition (Crespi et al.); format: in vitro ADME; conditions: baculovirus/insect cell-expressed human isoenzyme 3A4
T1 construct: host or cells: baculovirus/insect cells
Procedure: Cytochrome P450 Inhibition
The Cytochrome P450 inhibition was performed according to the publication of Crespi et al. (Anal. Biochem., 248, 188–190 (1997)) with use of the baculovirus/insect cell-expressed and human Cytochrome P450 isoenzyme (3A4).

T1 sequence (P08684 whole entry): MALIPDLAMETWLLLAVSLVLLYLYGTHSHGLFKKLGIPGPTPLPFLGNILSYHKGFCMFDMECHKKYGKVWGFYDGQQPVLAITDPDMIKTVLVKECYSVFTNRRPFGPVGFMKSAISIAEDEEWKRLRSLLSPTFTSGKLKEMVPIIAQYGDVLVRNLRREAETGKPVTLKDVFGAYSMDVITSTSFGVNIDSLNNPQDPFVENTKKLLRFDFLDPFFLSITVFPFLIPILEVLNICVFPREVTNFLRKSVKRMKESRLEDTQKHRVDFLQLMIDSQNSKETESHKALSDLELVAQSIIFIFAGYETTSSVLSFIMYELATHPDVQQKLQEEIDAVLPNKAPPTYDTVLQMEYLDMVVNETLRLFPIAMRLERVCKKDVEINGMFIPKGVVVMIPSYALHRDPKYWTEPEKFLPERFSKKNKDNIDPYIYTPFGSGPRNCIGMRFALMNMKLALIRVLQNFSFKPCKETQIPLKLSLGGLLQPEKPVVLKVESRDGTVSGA
Sequence of VEGFR II (KDR) (P35968 20-1356, species assumed): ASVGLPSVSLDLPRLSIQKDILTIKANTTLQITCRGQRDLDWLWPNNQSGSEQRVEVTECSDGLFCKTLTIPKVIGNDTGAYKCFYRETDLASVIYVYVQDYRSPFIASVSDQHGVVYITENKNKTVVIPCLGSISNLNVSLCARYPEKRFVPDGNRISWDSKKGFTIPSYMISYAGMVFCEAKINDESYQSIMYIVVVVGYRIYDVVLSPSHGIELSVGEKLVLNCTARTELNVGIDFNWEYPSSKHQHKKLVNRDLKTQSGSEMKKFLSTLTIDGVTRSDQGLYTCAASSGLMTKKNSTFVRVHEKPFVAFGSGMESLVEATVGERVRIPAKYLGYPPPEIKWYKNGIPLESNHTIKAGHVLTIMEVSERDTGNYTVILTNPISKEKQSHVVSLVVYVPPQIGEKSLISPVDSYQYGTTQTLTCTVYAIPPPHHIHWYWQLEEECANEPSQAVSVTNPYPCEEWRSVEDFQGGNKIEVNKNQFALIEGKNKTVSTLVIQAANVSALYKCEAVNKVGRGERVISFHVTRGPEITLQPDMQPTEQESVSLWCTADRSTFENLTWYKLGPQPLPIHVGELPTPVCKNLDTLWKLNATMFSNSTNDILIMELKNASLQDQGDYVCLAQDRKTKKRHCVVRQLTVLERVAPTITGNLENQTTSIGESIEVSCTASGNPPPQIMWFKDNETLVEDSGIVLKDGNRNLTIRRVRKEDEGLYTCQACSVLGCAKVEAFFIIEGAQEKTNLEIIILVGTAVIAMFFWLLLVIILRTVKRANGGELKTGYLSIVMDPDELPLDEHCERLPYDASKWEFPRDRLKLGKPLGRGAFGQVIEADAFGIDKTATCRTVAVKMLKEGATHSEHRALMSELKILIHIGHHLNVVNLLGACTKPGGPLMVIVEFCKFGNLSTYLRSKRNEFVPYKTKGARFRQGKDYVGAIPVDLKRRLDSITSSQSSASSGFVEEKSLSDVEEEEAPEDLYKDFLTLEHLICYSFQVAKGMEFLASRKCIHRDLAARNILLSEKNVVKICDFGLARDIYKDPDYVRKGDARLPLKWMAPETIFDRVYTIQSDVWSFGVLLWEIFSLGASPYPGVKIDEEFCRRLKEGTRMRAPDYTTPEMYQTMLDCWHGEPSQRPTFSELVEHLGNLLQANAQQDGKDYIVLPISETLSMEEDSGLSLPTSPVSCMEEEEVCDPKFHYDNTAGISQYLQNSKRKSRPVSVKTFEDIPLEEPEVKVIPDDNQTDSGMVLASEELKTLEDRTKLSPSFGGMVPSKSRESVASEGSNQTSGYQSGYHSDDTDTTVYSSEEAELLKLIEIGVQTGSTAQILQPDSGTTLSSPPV

Row | IC50 (VEGFR II (KDR)) [µM] | IC50 ([1]; heading: Inhibition of Cyp 450 3A4) [µM] | IC50 ([1]; read-out: Inhibition of Cyp 450 3A4 (IC50)) [µM] | SMILES
1 | 0.059 | 11 |  | O=C(Nc1ccc(OCC(F)(F)F)cc1)c1ccccc1NCc1ccc(=O)[nH]c1 [Example 1.5]
2 | 0.056 |  | 5.6 | O=C(Nc1ccc(OC(F)(F)F)cc1)c1ccccc1NCc1ccc(=O)[nH]c1 [Example 1.0, 2-[(6-Oxo-1,6-dihydro-pyridin-3-ylmethyl)-amino]-N-(4-trifluoromethoxy-phenyl)-benzamide]
